These results are taken from patent US20200054646A1, “USE OF PHENOTHIAZINE DERIVATIVE IN THE TREATMENT OF INFECTIOUS PURPURA OR PURPURA FULMINANS” (priority 2016, published 2020).

SMILES strings stand for the structures.

The test system of assay [1] is HDMEC infected with Nm2C4.3. In words: Cytoskeleton remodelling and endothelial cell junction integrity of infected HDMEC (Ezrin, Actin, VE-cadherin immunostaining). The assay is classed as cell-based, human. As to the method:
(A) Experimental procedure: HDMEC were infected for 2 h with Nm2C4.3, treated for 1 h with gentamicin (150 μg/ml) and then 15 min with Trifluoperazine (50 μM) (or solvent alone as a control) and left in medium for 1 h before fixation. (B) Upper panels: Representative fluorescence microscopy showing the effect on the endothelial cell cytoskeleton remodelling analysed by immunostaining of Ezrin and Actin. Lower panels: Effect on the endothelial cell junction integrity was analysed by immunostaining of Actin and VE-cadherin. (C) Quantification of the bacterial colonization (upper panel) Ezrin recruitment and cortical actin polymerization at sites of bacterial adhesion (lower panel) was performed using Image J software.
HDMECs were grown in their specific culture medium (Promocell #C-12210) and confluent monolayers were infected with 2C4.3. Briefly, bacteria were precultured in prewarmed cell culture medium for 1 h 30 min at 37° C. 5% CO2. The OD600 was adjusted to 0.1 and HDMECs were then overlaid with bacteria for 30 min (MOI of 100). Unbound bacteria were removed by three washes in cell culture media and infection was allowed to proceed for 1 h at 37° C. 5% CO2. Gentamicin was added at 150 μg/ml for 1 h, then after three washes in cell culture media, Trifluoperazine was applied where mentioned at 50 μM for 20 min. After three washes in cell culture media, cells were allowed to recover for 1 h in cell culture media. At the indicated time, cells were fixed with 4% Paraformaldehyde for 10 min. Immunolabelling was then performed as above described in example 4, using DAPI, Alexa Fluor 633 Phalloidin, Polyclonal antisera raised against Ezrin, obtained from Pr P. Mangeat (CRBM, Montpellier, France) and anti-human VE-Cadherin (eBioscience #BMS158). When indicated, HBMECs were grown on Thermanox coverslips coated with gelatin 2% for 2 days to reach confluency. Cells were then infected as above described in the presence or in the absence of 5 μM Trifluoperazine for 2 h. Cells were washed and fixed in 4% paraformaldehyde and immunolabelling was performed with a polyclonal antisera raised anti-Nm2C4.3 strain, anti-human PECAM-1 mouse monoclonal, clone HEC7 (ABCAM ab119339) or rabbit polyclonal 177 raised against PECAM-1, obtained from WA Muller (Northwestern University, Chicago, Ill., US), anti-[…] catenin (05-482, UBI), polyclonal antisera raised against Ezrin, Alexa Fluor 633 Phalloidin. Secondary antibodies were from Jackson ImmunoResearch Laboratories. Image acquisitions were performed on a Leica DM16000 with Yokogawa CSU-X1M1 system and CoolSnap HQ2 (Photometrics). Quantifications were done using ImageJ software (NIH).

Assay [2] relates to N. meningitidis Nm2C4.3 strain. In words: Bactericidal activity on N. meningitidis in liquid culture (colony forming unit count). As to conditions: for viable count of the culture that contained 10^7 CFU/ml: 15 min treatment. The assay is classed as cell-based, Neisseria meningitidis. On the procedure: N. meningitidis Nm2C4.3 strain grown in liquid culture at 10^7 CFU/ml were treated with increasing concentrations of Trifluoperazine (10 to 50 μM) or Gentamicin (150 μg/ml) for 15 minutes (A) Bactericidal activity was determined by the count of colony forming units on GCB agar plates 24 h after treatment. (B) Images of the non-treated bacteria or bacteria treated with 30 μM TFP grown for 24 h on GCB agar plates.
Nm2C4.3, a piliated capsulated Opa^−Opc^− variant of the serogroup C meningococcal clinical isolate 8013, was cultured in Dulbecco's Modified Eagle Medium (DMEM) 4.5 g/L-Glutamax media 0,1% BSA during two hours at 37° C. 5% C02. A bacterial suspension at optical density (OD) 0.1 was then distributed in 24-well plate (1 ml/well). After 1 hour of incubation, Trifluoperazine (Sigma #T8516, stock solution in PBS) was added to obtain final concentrations of 10, 20, 30, 40, and 50 μM. Gentamicin (150 μg/ml in DMEM) and PBS alone were used as controls. After 15 min treatment, serial dilutions were performed in physiological water and 100 μl of each dilution were plated on Petri dishes containing GCB solid media (BD, Difco GC media) containing supplements, incubated overnight and the colony forming units were counted.

Assay [3] has as its system Nm2C4.3 microcolonies on HBMEC. The assay can be described thus: Dispersion of meningococcal microcolonies at the surface of infected human endothelial cells. It counts as cell-based, Neisseria meningitidis. On the procedure:
Human […] microvascular endothelial cells (HBMEC) were infected with Nm2C4.3 for 1 h 30, treated with Trifluoperazine (10-40 μM) for 30 minutes, before fixation and immunofluorescence analysis using anti-Nm2C4.3 antibody and Alexa Fluor 633 Phalloidin. (A) Representative fluorescence microscopy showing bacterial colony (white dots) formed at the surface of the endothelial cells. (B) Quantification of the bacterial colonization was performed using Image J software.
HBMEC, a human endothelial cell line isolated from bone marrow capillaries (Schweitzer et al., 1997) were grown in Dulbecco's Modified Eagle Medium (DMEM) 4.5 g/L-Glutamax (ThermoFischer) 10% FBS. Cells were grown on Thermanox coverslips coated with gelatin 2% (BD Difco #214340) for 2 days to reach confluency. Cells were then infected with a suspension of Nm2C4.3 (˜10^7 CFU/ml) in DMEM/FBS during 30 minutes to allow bacterial adhesion. Cells were then washed three times with medium to remove non-adherent bacteria and infection was pursued for 1 h 30: adherent bacteria grew at the endothelial cell surface and formed micro-colonies. Trifluoperazine was then added to obtain final concentrations of 10, 20, 30 and 40 μM. After incubation for 30 minutes, cells were washed and fixed in 4% Paraformaldehyde for 10 min, washed three times with PBS, and permeabilized with 0.1% Triton X-100 in PBS for 10 min. Cells were blocked for 30 min with 3% BSA in PBS and were incubated for 2 h with the primary antibodies (Rabbit polyclonal anti-Nm2C4.3 strain, kindly provided by Dr X. Nassif, INEM, Paris). After three washes with PBS, cells were incubated for 1 h with […] anti-rabbit IgG (Jackson ImmunoResearch Laboratories), together with Alexa Fluor 633 Phalloidin (Thermofischer) and DAPI (0.5 mg ml-1, Sigma Aldrich) to stain Actin and nuclei, respectively. Labelled preparations were mounted in Glycergel media (DAKO) and image acquisitions were performed with a DM16000 microscope (Leica, X40). Quantification was done with ImageJ software (NIH). Results are presented as a vascular colonisation index corresponding to the area occupied by the fluorescently labelled bacteria per fields in relation to the area occupied by the fluorescently labelled human endothelial cells (Actin staining). Statistical analysis were performed with Student t test.

The mark [4] stands for this setting: Trifluoperazine 50 μM in combination with gentamicin 150 μg/ml.
[5] abbreviates: Gentamicin 150 μg/ml for 1 h alone.

As to `CN1CCN(CCCN2c3ccccc3Sc3ccc(C(F)(F)F)cc32)CC1` [Trifluoperazine], in assay [1] (setting [4]), the “Ezrin recruitment under residual bacteria” value was “Few Ezrin recruitment”; the “dispersion of bacterial colonies at the endothelial cell surface” value is “induced the dispersion of most of the bacterial colonies”; the “endothelial cell junction integrity (VE-cadherin staining, gaps between cells)” value is recorded as “preserved endothelial cell junction integrity”. Also, the “viable count of the culture that contained 10^7 CFU/ml” value in assay [2] (Trifluoperazine 50 μM) is recorded as 10^3 CFU/ml. The “viable count of the culture that contained 10^7 CFU/ml” value in assay [2] (Trifluoperazine 10 to 30 μM) was 10^6 CFU/ml. In assay [3] (30 min, HBMEC and primary HDMEC), the “concentration range of dose-dependent microcolony dispersion” value lay in the range of 10 to 40 µM. In assay [3] (treatment for 30 min, HBMEC (also HDMEC)), the “dispersion of compact microcolonies already established at the endothelial cell surface” value is “induced their dispersion”.
With `CN[C@@H]1[C@@H](O)C(O[C@@H]2[C@@H](O)[C@H](O[C@H]3O[C@H]([C@@H](C)NC)CC[C@H]3N)[C@@H](N)C[C@H]2N)OC[C@]1(C)O` (stereo partly drawn) [Gentamicin, (3R,4R,5R)-2-{[(1S,2S,3R,4S,6R)-4,6-diamino-3-{[(2R,3R,6S)-3-amino-6-[(1R)-1-(methylamino)ethyl]oxan-2-yl]oxy}-2-hydroxycyclohexyl]oxy}-5-methyl-4-(methylamino)oxane-3,5-diol], in assay [1] (setting [5]), the “Ezrin recruitment, cortical actin polymerization, VE-cadherin distribution under residual colonies” value was “still induced Ezrin recruitment” and the “number of colonies present at the cell surface” value is listed as “reduced the number of colonies”. Moreover, in assay [2] (Gentamicin 150 μg/ml, 15 min), the “bactericidal effect (in words)” value is given as “killed all bacteria”. Also, the “dispersion of microcolonies at the endothelial cell surface” value in assay [3] (Gentamicin 150 μg/ml) is “poorly induced the dispersion”.
